Active and inactive are the calls of the source.
Tests used:
Leucine aminopeptidase = target: T1, Leucine aminopeptidase (Plasmodium falciparum 3D7, UniProt Q8IL11); assay: P. falciparum M17LAP inhibitors, primary screen, biochemical, fluorogenic H-Leu-NHMec substrate, 1536-well (AID 1619); assay type: functional
T1 sequence (Q8IL11 whole entry): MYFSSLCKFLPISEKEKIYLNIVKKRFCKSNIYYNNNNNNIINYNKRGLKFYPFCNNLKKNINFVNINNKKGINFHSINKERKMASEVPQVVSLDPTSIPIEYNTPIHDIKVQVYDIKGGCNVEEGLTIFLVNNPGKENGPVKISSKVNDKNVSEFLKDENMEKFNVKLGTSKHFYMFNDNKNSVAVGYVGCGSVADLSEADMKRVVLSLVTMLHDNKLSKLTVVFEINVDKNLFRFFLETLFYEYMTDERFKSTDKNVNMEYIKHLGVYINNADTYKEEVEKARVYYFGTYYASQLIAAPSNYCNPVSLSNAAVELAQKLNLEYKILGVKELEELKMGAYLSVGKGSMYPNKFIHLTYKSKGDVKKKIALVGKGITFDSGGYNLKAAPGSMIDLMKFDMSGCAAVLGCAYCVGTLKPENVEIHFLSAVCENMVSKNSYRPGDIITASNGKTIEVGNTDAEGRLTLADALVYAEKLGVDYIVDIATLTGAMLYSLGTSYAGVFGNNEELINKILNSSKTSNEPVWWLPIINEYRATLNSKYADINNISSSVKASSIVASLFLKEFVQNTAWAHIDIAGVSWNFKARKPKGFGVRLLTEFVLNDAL

[1] = target: Peroxisome proliferator-activated receptor gamma/Nuclear receptor coactivator 2 (Homo sapiens, UniProt P37231); assay type: functional;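 also: agonist potency for raising coactivator recruitment to the receptor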
[2] = target: Peroxisome proliferator-activated receptor gamma/Nuclear receptor coactivator 3 (Homo sapiens, UniProt P37231); assay type: functional;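 also: agonist potency for raising coactivator recruitment to the receptor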
Aminopeptidase N = target: T2, Aminopeptidase N (Plasmodium falciparum FcB1/Columbia, UniProt O96935); assay: P. falciparum M1AAP inhibitors, biochemical, fluorogenic H-Leu-NHMec substrate, 1536-well (AID 1445); set-up: species or system Plasmodium falciparum 3D7, 3D7
T2 sequence (O96935 whole entry): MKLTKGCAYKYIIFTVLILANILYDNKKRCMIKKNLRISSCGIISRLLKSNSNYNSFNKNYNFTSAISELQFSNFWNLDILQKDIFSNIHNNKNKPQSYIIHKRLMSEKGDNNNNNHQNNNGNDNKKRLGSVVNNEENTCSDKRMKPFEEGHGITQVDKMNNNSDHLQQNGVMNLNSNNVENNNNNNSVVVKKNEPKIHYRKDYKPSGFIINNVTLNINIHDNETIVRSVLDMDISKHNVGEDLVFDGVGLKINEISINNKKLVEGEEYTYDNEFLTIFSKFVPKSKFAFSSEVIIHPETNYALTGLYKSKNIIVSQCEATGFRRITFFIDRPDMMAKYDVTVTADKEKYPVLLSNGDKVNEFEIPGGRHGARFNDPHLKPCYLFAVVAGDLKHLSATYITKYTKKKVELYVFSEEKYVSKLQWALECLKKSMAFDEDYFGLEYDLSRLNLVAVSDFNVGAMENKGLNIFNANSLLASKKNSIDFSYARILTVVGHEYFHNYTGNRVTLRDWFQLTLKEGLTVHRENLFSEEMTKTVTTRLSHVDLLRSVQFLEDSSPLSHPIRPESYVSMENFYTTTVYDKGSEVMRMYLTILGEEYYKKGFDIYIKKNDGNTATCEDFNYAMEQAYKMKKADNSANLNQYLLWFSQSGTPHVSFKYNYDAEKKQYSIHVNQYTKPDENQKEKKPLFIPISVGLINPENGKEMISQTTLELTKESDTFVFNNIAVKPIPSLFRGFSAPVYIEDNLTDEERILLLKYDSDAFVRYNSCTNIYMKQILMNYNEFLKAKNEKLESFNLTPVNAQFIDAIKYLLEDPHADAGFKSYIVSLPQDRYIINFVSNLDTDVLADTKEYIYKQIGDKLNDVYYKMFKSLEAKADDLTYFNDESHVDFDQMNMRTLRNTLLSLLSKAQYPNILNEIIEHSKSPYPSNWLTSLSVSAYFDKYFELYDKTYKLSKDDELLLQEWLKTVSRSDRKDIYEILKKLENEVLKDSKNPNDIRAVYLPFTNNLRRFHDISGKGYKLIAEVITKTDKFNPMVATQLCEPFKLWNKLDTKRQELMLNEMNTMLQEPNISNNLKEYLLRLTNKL

[3] = target: Peroxisome proliferator-activated receptor gamma/Nuclear receptor coactivator 1 (Homo sapiens, UniProt P37231); assay type: functional;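 also: agonist potency as compounds enhance coactivator SRC-1 recruitment to PPARgamma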
Large T antigen = Large T antigen (Simian virus 40, UniProt P03070); assay type: functional, Betapolyomavirus macacae;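 also: Confirmatory-stage PubChem screen for compounds that inhibit SV40 T antigen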
[4] = target: T3, Histone-lysine N-methyltransferase NSD2 (Homo sapiens, UniProt O96028); assay type: biochemical
T3 sequence (O96028 whole entry): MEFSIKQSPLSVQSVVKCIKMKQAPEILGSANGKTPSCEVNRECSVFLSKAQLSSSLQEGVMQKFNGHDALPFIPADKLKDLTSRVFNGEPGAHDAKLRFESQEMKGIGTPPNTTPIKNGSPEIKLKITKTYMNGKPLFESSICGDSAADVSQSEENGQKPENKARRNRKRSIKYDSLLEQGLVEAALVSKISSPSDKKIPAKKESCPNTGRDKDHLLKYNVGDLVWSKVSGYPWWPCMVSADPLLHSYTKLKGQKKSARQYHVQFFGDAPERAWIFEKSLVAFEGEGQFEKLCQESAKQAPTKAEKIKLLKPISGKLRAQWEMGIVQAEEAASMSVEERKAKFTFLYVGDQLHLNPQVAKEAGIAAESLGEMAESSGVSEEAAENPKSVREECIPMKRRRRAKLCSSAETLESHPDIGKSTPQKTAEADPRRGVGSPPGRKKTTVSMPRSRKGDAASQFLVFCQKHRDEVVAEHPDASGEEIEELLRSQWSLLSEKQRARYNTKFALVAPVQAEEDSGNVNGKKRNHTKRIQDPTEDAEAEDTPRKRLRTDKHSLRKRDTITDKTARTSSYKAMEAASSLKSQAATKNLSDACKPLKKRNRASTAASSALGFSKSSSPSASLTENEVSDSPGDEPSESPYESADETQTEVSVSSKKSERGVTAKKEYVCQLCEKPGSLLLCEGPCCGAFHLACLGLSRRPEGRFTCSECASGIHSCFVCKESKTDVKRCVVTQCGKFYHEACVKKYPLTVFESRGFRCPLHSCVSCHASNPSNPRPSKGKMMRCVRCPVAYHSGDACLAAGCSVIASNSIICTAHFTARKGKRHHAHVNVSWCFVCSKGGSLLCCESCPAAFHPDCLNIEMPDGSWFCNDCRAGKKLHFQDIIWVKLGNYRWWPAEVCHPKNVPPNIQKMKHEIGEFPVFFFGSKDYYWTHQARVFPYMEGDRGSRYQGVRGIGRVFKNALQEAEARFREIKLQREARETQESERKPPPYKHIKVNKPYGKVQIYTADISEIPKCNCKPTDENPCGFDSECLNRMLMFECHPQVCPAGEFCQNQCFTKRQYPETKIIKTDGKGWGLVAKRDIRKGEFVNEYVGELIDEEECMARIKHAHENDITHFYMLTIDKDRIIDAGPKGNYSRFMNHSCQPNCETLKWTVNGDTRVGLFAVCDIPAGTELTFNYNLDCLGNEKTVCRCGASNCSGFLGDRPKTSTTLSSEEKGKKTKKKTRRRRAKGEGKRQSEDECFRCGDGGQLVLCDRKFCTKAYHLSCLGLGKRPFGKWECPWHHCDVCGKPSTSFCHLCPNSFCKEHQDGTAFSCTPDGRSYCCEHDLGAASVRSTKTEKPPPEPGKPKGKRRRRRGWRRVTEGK

Streptokinase A = target: T4, Streptokinase A (Streptococcus pyogenes serotype M1, UniProt P10520); assay: S. pyogenes streptokinase expression inhibitors, potency, dose response, plasminogen activation absorbance, OD405 (AID 1914); assay type: functional, Streptococcus pyogenes M1 GAS;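 also: secreted streptokinase activity via plasminogen activation per viability signal from cell pellet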
T4 sequence (P10520 whole entry): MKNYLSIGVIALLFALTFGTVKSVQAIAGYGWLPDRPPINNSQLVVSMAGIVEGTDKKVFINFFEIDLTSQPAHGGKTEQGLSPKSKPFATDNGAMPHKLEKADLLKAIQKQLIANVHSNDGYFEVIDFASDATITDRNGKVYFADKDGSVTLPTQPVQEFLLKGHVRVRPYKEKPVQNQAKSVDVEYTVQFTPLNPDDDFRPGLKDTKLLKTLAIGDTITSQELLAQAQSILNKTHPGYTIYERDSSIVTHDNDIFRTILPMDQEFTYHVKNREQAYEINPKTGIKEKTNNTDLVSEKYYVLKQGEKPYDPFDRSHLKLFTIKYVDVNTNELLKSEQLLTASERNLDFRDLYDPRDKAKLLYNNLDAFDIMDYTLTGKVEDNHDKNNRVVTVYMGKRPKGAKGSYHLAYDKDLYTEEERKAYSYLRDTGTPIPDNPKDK

Streptococcus = assay: Group A Streptococcus viability loss, dose response, counter-screen for streptokinase expression inhibitor project, luminescence, BacTiterGlo (AID 1915); assay type: functional, organism-based;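 also: potency for reduction of bacterial viability or growth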
[5] = system: Streptococcus sp. 'group A'; assay: growth inhibition of control SK(-) GAS strain, dose response, counter-screen for streptokinase expression inhibitor project, luminescence, kanamycin, BacTiterGlo, confirmation (AID 1900); assay type: functional, organism-based

Sequence of Large T antigen (P03070 whole entry): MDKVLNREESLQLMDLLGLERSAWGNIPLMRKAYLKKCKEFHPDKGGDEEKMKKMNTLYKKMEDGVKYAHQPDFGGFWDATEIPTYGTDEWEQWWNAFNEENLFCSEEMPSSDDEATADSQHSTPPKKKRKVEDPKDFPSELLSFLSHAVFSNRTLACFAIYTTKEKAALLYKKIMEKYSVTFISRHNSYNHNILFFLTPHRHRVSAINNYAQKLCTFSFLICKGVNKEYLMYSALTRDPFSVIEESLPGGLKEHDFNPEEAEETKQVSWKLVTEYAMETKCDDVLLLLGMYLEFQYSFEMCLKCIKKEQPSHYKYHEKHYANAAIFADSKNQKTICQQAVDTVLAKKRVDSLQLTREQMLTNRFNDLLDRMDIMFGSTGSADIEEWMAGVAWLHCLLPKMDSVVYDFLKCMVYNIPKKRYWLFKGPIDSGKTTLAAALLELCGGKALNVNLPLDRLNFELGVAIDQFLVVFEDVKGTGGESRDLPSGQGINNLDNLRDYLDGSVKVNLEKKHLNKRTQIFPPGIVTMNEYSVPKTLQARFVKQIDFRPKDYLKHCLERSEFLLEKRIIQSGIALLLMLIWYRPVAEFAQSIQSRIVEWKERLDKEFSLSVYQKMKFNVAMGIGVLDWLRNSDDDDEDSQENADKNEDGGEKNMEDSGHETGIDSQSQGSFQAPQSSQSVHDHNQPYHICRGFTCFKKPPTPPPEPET
Sequence of Peroxisome proliferator-activated receptor gamma/Nuclear receptor coactivator 2 (P37231 whole entry): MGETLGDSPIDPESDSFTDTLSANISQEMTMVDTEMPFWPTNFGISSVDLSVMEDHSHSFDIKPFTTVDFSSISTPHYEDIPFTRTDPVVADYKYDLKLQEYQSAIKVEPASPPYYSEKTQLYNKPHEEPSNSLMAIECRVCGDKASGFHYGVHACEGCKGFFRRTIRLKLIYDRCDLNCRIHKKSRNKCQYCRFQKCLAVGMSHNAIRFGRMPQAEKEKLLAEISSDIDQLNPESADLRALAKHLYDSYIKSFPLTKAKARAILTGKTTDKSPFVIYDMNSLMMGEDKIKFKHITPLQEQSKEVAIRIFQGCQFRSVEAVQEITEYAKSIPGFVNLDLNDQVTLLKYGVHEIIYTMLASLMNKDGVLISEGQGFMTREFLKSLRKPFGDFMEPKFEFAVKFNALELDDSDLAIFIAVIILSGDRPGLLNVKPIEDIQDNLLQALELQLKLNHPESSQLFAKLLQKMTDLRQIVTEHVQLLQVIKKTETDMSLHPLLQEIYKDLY
Sequence of Peroxisome proliferator-activated receptor gamma/Nuclear receptor coactivator 2 (Q15596 whole entry, further chain): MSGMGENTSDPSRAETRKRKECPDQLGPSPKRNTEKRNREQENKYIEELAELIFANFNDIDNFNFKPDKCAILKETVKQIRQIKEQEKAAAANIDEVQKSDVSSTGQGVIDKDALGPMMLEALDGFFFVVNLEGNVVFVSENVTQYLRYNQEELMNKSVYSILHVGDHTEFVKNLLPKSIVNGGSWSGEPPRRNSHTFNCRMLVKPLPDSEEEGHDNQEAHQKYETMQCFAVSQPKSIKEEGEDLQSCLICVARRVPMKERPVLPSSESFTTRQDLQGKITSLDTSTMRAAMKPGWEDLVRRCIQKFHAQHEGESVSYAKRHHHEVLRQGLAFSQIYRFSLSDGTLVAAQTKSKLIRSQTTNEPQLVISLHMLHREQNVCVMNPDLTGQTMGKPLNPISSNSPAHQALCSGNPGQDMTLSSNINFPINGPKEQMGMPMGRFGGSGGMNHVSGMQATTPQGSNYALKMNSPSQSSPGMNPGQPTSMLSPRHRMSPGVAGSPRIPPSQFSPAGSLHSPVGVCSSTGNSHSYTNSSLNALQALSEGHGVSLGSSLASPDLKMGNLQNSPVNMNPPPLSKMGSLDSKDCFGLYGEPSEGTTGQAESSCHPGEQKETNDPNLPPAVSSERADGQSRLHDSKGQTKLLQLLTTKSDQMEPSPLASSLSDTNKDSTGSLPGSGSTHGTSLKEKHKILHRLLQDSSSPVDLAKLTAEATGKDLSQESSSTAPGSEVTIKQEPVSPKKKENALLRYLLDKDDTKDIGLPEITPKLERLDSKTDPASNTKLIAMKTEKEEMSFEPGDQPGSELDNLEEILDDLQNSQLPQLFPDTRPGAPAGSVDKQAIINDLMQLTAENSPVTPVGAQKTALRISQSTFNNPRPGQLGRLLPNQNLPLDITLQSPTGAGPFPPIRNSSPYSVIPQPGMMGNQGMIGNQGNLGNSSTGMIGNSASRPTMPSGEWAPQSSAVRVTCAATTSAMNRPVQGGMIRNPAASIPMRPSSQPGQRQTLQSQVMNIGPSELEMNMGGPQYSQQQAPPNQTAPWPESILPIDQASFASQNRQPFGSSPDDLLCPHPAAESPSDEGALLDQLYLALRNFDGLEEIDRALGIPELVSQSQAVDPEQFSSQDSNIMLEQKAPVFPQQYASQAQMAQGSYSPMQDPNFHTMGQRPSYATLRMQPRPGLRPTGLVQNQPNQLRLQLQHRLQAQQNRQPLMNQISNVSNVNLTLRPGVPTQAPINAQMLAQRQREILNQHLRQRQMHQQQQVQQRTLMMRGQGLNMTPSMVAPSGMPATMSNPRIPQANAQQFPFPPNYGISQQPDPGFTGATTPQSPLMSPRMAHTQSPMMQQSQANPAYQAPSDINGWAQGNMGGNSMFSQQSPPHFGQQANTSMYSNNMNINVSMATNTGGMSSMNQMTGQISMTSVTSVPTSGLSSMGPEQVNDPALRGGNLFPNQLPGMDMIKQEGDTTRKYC
Sequence of Peroxisome proliferator-activated receptor gamma/Nuclear receptor coactivator 3 (P37231 whole entry): as the sequence (P37231 whole entry) above
Sequence of Peroxisome proliferator-activated receptor gamma/Nuclear receptor coactivator 3 (Q9Y6Q9 whole entry, further chain): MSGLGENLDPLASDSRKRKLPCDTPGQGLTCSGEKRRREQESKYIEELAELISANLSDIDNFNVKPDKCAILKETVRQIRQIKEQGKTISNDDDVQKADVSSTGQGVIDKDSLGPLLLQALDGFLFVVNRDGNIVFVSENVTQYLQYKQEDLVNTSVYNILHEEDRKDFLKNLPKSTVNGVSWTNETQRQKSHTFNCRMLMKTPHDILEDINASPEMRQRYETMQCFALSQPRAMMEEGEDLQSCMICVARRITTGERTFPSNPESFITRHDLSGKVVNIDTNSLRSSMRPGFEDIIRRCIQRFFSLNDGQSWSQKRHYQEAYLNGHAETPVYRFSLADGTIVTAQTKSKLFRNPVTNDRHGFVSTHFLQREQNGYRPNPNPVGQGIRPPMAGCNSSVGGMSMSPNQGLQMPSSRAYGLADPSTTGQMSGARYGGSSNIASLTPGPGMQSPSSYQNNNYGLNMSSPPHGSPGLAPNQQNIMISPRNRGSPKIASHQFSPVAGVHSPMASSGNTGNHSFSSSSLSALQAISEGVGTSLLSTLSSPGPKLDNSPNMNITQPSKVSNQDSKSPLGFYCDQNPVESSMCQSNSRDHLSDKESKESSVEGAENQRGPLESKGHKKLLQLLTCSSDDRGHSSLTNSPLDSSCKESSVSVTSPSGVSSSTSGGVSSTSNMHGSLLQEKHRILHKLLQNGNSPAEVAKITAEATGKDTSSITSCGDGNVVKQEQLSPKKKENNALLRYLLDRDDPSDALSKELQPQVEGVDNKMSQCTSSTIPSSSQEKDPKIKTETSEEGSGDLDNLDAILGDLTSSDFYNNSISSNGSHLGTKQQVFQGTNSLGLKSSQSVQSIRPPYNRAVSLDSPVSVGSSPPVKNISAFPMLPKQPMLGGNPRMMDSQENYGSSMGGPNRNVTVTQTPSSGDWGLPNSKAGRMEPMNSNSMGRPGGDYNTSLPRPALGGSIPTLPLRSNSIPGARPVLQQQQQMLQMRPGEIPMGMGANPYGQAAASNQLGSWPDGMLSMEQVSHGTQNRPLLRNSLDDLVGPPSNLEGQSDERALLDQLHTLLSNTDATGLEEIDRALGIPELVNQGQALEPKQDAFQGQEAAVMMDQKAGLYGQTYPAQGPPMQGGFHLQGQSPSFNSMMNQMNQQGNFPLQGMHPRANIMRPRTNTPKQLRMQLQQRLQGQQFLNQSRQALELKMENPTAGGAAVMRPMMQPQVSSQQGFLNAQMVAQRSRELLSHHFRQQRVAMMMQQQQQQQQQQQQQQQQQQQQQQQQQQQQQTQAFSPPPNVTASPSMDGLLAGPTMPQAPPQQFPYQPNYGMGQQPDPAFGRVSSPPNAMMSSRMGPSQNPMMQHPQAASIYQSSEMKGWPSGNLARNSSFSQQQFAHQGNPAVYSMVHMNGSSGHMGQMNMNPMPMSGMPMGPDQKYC

Row | SMILES | IC50 (Leucine aminopeptidase) | IC50 (Aminopeptidase N) | IC50 (Large T antigen) | other results
1 | CCc1nnc(NS(=O)(=O)c2ccc(NC(=S)NC(=O)/C=C/c3cccs3)cc2)s1 | 9.13 µM (active) | 79.4 µM (active) | – | EC50 [1]: > 79.4 µM (not active); EC50 [2]: > 79.4 µM (not active); EC50 [3]: > 79.4 µM (not active)
2 | OC[C@H]1O[C@@H](Oc2cc(O)cc(/C=C/c3ccc(O)cc3)c2)[C@H](O)[C@@H](O)[C@@H]1O [PICEID] | – | – | 11.2 µM (active) | –
3 | CCN(CC)CCCCN1c2ccccc2Sc2ccccc21 | – | – | 14.2 µM (active) | –
4 | CSC1=NSC2=NC(=O)/C(=C\c3coc4ccccc4c3=O)C(=N)N12 | – | – | 67.1 µM (active) | AC50 [4]: 11.7 µM (active)
5 | Cc1csc(NC(=O)COCC(=O)O)c1-c1nc2ccccc2s1 | 35.1 µM (active) | 17.1 µM (active) | – | EC50 (Streptokinase A): > 150 µM (not active); EC50 (Streptococcus): 22.3 µM (active); EC50 [5]: 5.48 µM (active)
6 | CCCSc1nnc(NC(=O)c2nc(SC)ncc2Cl)s1 | 34.2 µM (active) | 109 µM (active) | – | –
